Assay results reported in PubChem BioAssay AID328 (DTP/NCI, 2004).
Values joined by “and” are separate entries in the source; they are usually repeats but may differ in a detail not shown here. Identical values can stand only once. Toxic doses and inconclusive results are not listed.

Tested on: BDF1 mice, P388 leukemia ip, median survival T/C
Assay: NCI In Vivo Anticancer Drug Screen. Data for tumor model P388 Leukemia (intraperitoneal) in B6D2F1 (BDF1) mice
Conditions: endpoint: median survival time, higher = longer survival
In short: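 Compound-treated tumour-bearing mice were compared with vehicle-treated controls. Survival was recorded, and the value is the treated-group measurement divided by the control-group measurement (T/C).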

[1] = dose: 25.0 mg/kg/injection, schedule: Q01DX009 (ip), vehicle: saline
[2] = dose: 50.0 mg/kg/injection, schedule: Q01DX009 (ip), vehicle: saline
[3] = dose: 50.0 mg/kg/injection, schedule: Q04DX003 (ip), vehicle: saline
[4] = dose: 100.0 mg/kg/injection, schedule: Q01DX009 (ip), vehicle: saline
[5] = dose: 100.0 mg/kg/injection, schedule: Q04DX003 (ip), vehicle: saline
[6] = dose: 12.5 mg/kg/injection, schedule: Q01DX009 (ip), vehicle: saline
[7] = dose: 25.0 mg/kg/injection, schedule: Q04DX003 (ip), vehicle: saline
[8] = dose: 12.5 mg/kg/injection, schedule: Q04DX003 (ip), vehicle: Klucel (hydroxypropylcellulose) (HPC)
[9] = dose: 25.0 mg/kg/injection, schedule: Q04DX003 (ip), vehicle: Klucel (hydroxypropylcellulose) (HPC)
[10] = dose: 50.0 mg/kg/injection, schedule: Q04DX003 (ip), vehicle: Klucel (hydroxypropylcellulose) (HPC)
[11] = dose: 100.0 mg/kg/injection, schedule: Q04DX003 (ip), vehicle: saline with Tween-80
[12] = dose: 200.0 mg/kg/injection, schedule: Q04DX003 (ip), vehicle: saline with Tween-80
[13] = dose: 400.0 mg/kg/injection, schedule: Q04DX003 (ip), vehicle: saline with Tween-80
[14] = dose: 50.0 mg/kg/injection, schedule: Q04DX003 (ip), vehicle: saline with Tween-80
[15] = dose: 200.0 mg/kg/injection, schedule: Q04DX003 (ip), vehicle: saline
[16] = dose: 400.0 mg/kg/injection, schedule: Q04DX003 (ip), vehicle: saline
[17] = dose: 100.0 mg/kg/injection, schedule: Q04DX003 (ip), vehicle: Klucel (hydroxypropylcellulose) (HPC)
[18] = dose: 200.0 mg/kg/injection, schedule: Q04DX003 (ip), vehicle: Klucel (hydroxypropylcellulose) (HPC)
[19] = dose: 100.0 mg/kg/injection, schedule: Q01DX009 (ip), vehicle: saline with Tween-80
[20] = dose: 200.0 mg/kg/injection, schedule: Q01DX009 (ip), vehicle: saline with Tween-80
[21] = dose: 400.0 mg/kg/injection, schedule: Q01DX009 (ip), vehicle: saline with Tween-80
[22] = dose: 50.0 mg/kg/injection, schedule: Q01DX009 (ip), vehicle: saline with Tween-80

With `O=C(Oc1ccccc1)c1cc(O)c(O)c(O)c1` the T/C (dose: 50.0 mg/kg/injection, schedule: Q01DX005 (ip), vehicle: saline with Tween-80) was 100 % of control and 106 % of control, the T/C (dose: 100.0 mg/kg/injection, schedule: Q01DX005 (ip), vehicle: saline with Tween-80) was 107 % of control and 115 % of control and the T/C (dose: 200.0 mg/kg/injection, schedule: Q01DX005 (ip), vehicle: saline with Tween-80) was 105 % of control. The T/C (dose: 400.0 mg/kg/injection, schedule: Q01DX005 (ip), vehicle: saline with Tween-80) was 154 % of control.
In the case of `CCCCN(CCO)C(C#CC(C)(C)O)C(C)C` (stereo not given), the T/C (dose: 50.0 mg/kg/injection, schedule: Q01DX001 (ip), vehicle: saline sonified) is reported as 110 % of control, the T/C (dose: 100.0 mg/kg/injection, schedule: Q01DX001 (ip), vehicle: saline sonified) is reported as 110 % of control and the T/C (dose: 200.0 mg/kg/injection, schedule: Q01DX001 (ip), vehicle: saline sonified) is reported as 105 % of control.
`Cn1c(=O)c2[nH]c(CCCc3nc4c([nH]3)c(=O)n(C)c(=O)n4C)nc2n(C)c1=O` was tested, and the T/C [1] was 90 % of control, the T/C [2] was 89 % of control and the T/C [3] was 100 % of control. The T/C [4] was 96 % of control and 122 % of control and the T/C [5] was 108 % of control.
For `NN(c1cccc(C(F)(F)F)c1)c1ccccn1`, the T/C [6] was 108 % of control, the T/C [1] was 106 % of control and the T/C [2] was 115 % of control.
For `CCS/C(N)=N\N`, the T/C [6] was 100 % of control, the T/C [1] was 104 % of control and the T/C [7] was 109 % of control. For the same compound, the T/C [3] was 104 % of control.
For `O=C1C=CC(=C(c2ccccc2)c2ccccc2)C=C1`, the T/C [8] was 95 % of control, the T/C [9] was 100 % of control and the T/C [10] was 91 % of control.
In the case of `O=Cc1csc2ncccc12`, the T/C [11] is reported as 91 % of control, the T/C [12] is reported as 100 % of control and the T/C [13] is reported as 95 % of control.
For `C1=CCONC1`, the T/C [14] was 99 % of control, the T/C [11] was 104 % of control and the T/C [5] was 103 % of control. The T/C [12] was 100 % of control, the T/C [15] was 120 % of control and the T/C [16] was 93 % of control.
`CCc1oc(=O)c(Cc2c(OC(C)=O)cc(OC(C)=O)c3c2OC(c2ccccc2)CC3=O)c(OC(C)=O)c1C` (stereo not given) was tested, and the T/C (dose: 1.0 mg/kg/injection, schedule: Q01DX009 (ip), vehicle: Klucel (hydroxypropylcellulose) (HPC)) was 99 % of control, the T/C (dose: 2.0 mg/kg/injection, schedule: Q01DX009 (ip), vehicle: Klucel (hydroxypropylcellulose) (HPC)) was 92 % of control and the T/C (dose: 4.0 mg/kg/injection, schedule: Q01DX009 (ip), vehicle: Klucel (hydroxypropylcellulose) (HPC)) was 93 % of control. For the same compound, the T/C (dose: 8.0 mg/kg/injection, schedule: Q01DX009 (ip), vehicle: Klucel (hydroxypropylcellulose) (HPC)) was 92 % of control.
With `COc1ccccc1NC(=O)Nc1ccc(C(=O)OCC(C)C)cc1` the T/C [14] was 108 % of control, the T/C [11] was 91 % of control and the T/C [12] was 100 % of control.
With `CN(C)c1ccc(C(C#N)(c2ccc(N(C)C)cc2)c2ccc(N(C)C)cc2)cc1` the T/C [10] was 100 % of control, the T/C [17] was 100 % of control and the T/C [18] was 95 % of control.
With `CC1=Nc2ccccc2NC(C)(C)C1` the T/C [5] was 101 % of control, the T/C [15] was 99 % of control and the T/C [16] was 90 % of control.
With `CN(C)[C@@H]1C(=O)C(C(N)=O)=C(O)[C@@]2(O)C(=O)C3=C(O)c4c(O)cccc4C[C@H]3C[C@@H]12` the T/C (dose: 3.75 mg/kg/injection, schedule: Q01DX010 (ip), vehicle: water) was 100 % of control, the T/C (dose: 7.5 mg/kg/injection, schedule: Q01DX010 (ip), vehicle: saline) was 120 % of control and the T/C (dose: 7.5 mg/kg/injection, schedule: Q01DX010 (ip), vehicle: water) was 118 % of control. For the same compound, the T/C (dose: 15.0 mg/kg/injection, schedule: Q01DX010 (ip), vehicle: saline) was 120 % of control, the T/C (dose: 20.0 mg/kg/injection, schedule: Q01DX010 (oral), vehicle: water) was 109 % of control and the T/C (dose: 35.0 mg/kg/injection, schedule: Q01DX010 (oral), vehicle: water) was 100 % of control. The T/C (dose: 50.0 mg/kg/injection, schedule: Q01DX010 (oral), vehicle: water) was 100 % of control, the T/C (dose: 60.0 mg/kg/injection, schedule: Q01DX010 (ip), vehicle: saline) was 100 % of control and the T/C (dose: 65.0 mg/kg/injection, schedule: Q01DX010 (oral), vehicle: water) was 109 % of control. For the same compound, the T/C (dose: 80.0 mg/kg/injection, schedule: Q01DX010 (oral), vehicle: water) was 90 % of control.
In the case of `c1ccc2c(CNC3CCCCC3)c[nH]c2c1`, the T/C [17] is reported as 95 % of control, the T/C [18] is reported as 90 % of control and the T/C (dose: 400.0 mg/kg/injection, schedule: Q04DX003 (ip), vehicle: Klucel (hydroxypropylcellulose) (HPC)) is reported as 90 % of control.
In the case of `Nc1ccccc1-n1nc2ccc3ccccc3c2n1`, the T/C [19] is reported as 105 % of control, the T/C (dose: 132.0 mg/kg/injection, schedule: Q01DX009 (ip), vehicle: saline with Tween-80) is reported as 90 % of control and the T/C [20] is reported as 100 % of control. The T/C (dose: 300.0 mg/kg/injection, schedule: Q01DX009 (ip), vehicle: saline with Tween-80) was 95 % of control and the T/C [21] was 105 % of control.
For `C=CCC(CC)C(=O)O` (stereo not given), the T/C [2] was 100 % of control and the T/C [4] was 104 % of control.
For `O=c1ccc2cc(-c3ccncc3)cnc2[nH]1`, the T/C (dose: 100.0 mg/kg/injection, schedule: Q04DX002 (ip), vehicle: saline with Tween-80) was 108 % of control.
With `CC(O)CN1CC(C)N(CC(C)O)CC1C` (stereo not given) the T/C (dose: 12.5 mg/kg/injection, schedule: Q04DX003 (ip), vehicle: saline) was 104 % of control, the T/C [7] was 100 % of control and the T/C [3] was 100 % of control.
For `O=C/C=C/c1ccc([N+](=O)[O-])cc1`, the T/C (dose: 25.0 mg/kg/injection, schedule: Q01DX009 (ip), vehicle: saline with Tween-80) was 104 % of control, the T/C [22] was 108 % of control and the T/C [19] was 91 % of control.
In the case of `O=S1(=O)OCc2ccccc21`, the T/C (dose: 50.0 mg/kg/injection, schedule: Q01DX009 (ip), vehicle: Klucel (hydroxypropylcellulose) (HPC)) is reported as 108 % of control, the T/C [10] is reported as 86 % of control and the T/C (dose: 100.0 mg/kg/injection, schedule: Q01DX009 (ip), vehicle: Klucel (hydroxypropylcellulose) (HPC)) is reported as 91 % of control. The T/C [17] was 100 % of control and 104 % of control and the T/C [18] was 92 % of control and 95 % of control.
`ClC1C2c3ccccc3C(C1Cl)[n+]1ccccc12` (stereo not given) was tested, and the T/C (dose: 8.75 mg/kg/injection, schedule: Q01DX009 (ip), vehicle: Klucel (hydroxypropylcellulose) (HPC)) was 100 % of control, the T/C [8] was 100 % of control and the T/C (dose: 17.5 mg/kg/injection, schedule: Q01DX009 (ip), vehicle: Klucel (hydroxypropylcellulose) (HPC)) was 100 % of control. The T/C [9] was 95 % of control.
For `O=C(O)c1occ(Cl)c1Cl`, the T/C (dose: 0.78 mg/kg/injection, schedule: Q01DX009 (ip), vehicle: water) was 100 % of control, the T/C (dose: 1.56 mg/kg/injection, schedule: Q01DX009 (ip), vehicle: water) was 98 % of control and the T/C (dose: 3.12 mg/kg/injection, schedule: Q01DX009 (ip), vehicle: water) was 97 % of control. For the same compound, the T/C (dose: 6.25 mg/kg/injection, schedule: Q01DX009 (ip), vehicle: water) was 97 % of control, the T/C (dose: 12.5 mg/kg/injection, schedule: Q01DX009 (ip), vehicle: water) was 94 % of control and the T/C (dose: 25.0 mg/kg/injection, schedule: Q01DX009 (ip), vehicle: water) was 94 % of control. For the same compound, the T/C (dose: 50.0 mg/kg/injection, schedule: Q01DX009 (ip), vehicle: water) was 106 % of control, the T/C (dose: 50.0 mg/kg/injection, schedule: Q04DX003 (ip), vehicle: water) was 96 % of control and the T/C (dose: 100.0 mg/kg/injection, schedule: Q04DX003 (ip), vehicle: water) was 104 % of control. The T/C (dose: 200.0 mg/kg/injection, schedule: Q04DX003 (ip), vehicle: water) was 119 % of control.
In the case of `Cc1ccc2c(c1)NC(c1ccc(C(N)=S)cc1)N2` (stereo not given), the T/C (dose: 25.0 mg/kg/injection, schedule: Q04DX003 (ip), vehicle: saline with Tween-80) is reported as 97 % of control, the T/C [14] is reported as 88 % of control and the T/C [11] is reported as 87 % of control.
In the case of `CCOC(=O)COc1ccc(/C=C(\C)[N+](=O)[O-])c2ccccc12`, the T/C [22] is reported as 112 % of control and 123 % of control, the T/C [19] is reported as 112 % of control and the T/C [20] is reported as 122 % of control. The T/C [21] was 106 % of control.
With `C=CCOc1ccccc1-c1nnn(C)n1` the T/C [11] was 95 % of control, the T/C [12] was 97 % of control and the T/C [13] was 104 % of control.
